Test results taken from patent US9522914B2, “Azole derivative” (TAISHO PHARMACEUTICAL CO., LTD, priority 2011, dated 2016).

The compounds below were run against Human V1b receptor (Homo sapiens (Human), UniProt P47901) (assay: Binding Test for V1b Receptor ([3H]AVP, crude membrane preparation of 293FT cells)). Conditions: inhibition of [3H]AVP binding (0.4 to 1 nmol/L), room temperature, 60 minutes.
Experimental: Binding Test for V1b Receptor
Human V1b receptor was transiently expressed in 293FT cells (Invitrogen). The cells were collected and then homogenated in a 15 mmol/L tris-hydrochloric acid buffer (pH 7.4 and containing 2 mmol/L magnesium chloride, 0.3 mmol/L ethylenediaminetetracetic acid, and 1 mmol/L glycol ether diaminetetraacetic acid). The resulting homogenate was centrifuged at 50,000×g at 4° C. for 20 minutes. The precipitate was resuspended in a 75 mmol/L tris-hydrochloric acid buffer (pH 7.4 and containing 12.5 mmol/L magnesium chloride, 0.3 mmol/L ethylenediaminetetracetic acid, 1 mmol/L glycol ether diaminetetraacetic acid, and 250 mmol/L sucrose) to give a crude membrane preparation, which was stored at −80° C. until the binding test was initiated. In the binding test, the crude membrane preparation was diluted with a 50 mmol/L tris-hydrochloric acid buffer (pH 7.4 and containing 10 mmol/L magnesium chloride and 0.1% bovine serum albumin) and mixed with each test compound and [^3H]AVP (final concentration: 0.4 to 1 nmol/L), followed by incubation at room temperature for 60 minutes. The test compound was serially diluted with DMSO so that it would have final concentrations of 0.01 nmol/L to 1 μmol/L at the time of mixing. After the incubation, the mixture was suction filtered through a GF/C filter that was preliminarily impregnated with 0.3% polyethyleneimine. The GF/C filter was dried and after adding a scintillator, the residual radioactivity on the filter was measured using TopCount (PerkinElmer Inc.). The radioactivity in the presence of unlabeled AVP at […] was defined as 0%, and the radioactivity in the absence of unlabeled AVP was defined as 100%. A dose-response curve was plotted from radio activities in the presence of a test compound at various concentrations, and the 50% inhibitory concentration (IC50 value) of the test compound was calculated.

Chain of Human V1b receptor (P47901 whole entry): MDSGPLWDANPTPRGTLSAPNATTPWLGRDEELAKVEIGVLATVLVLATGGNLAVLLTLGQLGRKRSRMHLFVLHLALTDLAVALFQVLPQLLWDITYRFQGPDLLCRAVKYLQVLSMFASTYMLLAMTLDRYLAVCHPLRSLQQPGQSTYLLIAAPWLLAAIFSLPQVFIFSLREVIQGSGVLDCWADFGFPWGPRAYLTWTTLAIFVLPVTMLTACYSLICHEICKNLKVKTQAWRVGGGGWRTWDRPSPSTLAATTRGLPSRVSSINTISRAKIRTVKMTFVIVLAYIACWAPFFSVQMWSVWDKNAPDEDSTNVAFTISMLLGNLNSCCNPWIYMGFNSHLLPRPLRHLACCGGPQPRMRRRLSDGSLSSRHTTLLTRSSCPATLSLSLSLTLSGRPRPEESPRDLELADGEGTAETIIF

SMILES | IC50 [nM]
COc1cccc(-c2nc(-c3ccc(CCN4C5CCC4COC5)cc3)cn2CC(=O)NC(C)C)c1 [Example A-42, 2-[2-(3-methoxyphenyl)-4-{4-[2-(3-oxa-8-azabicyclo[3.2.1]oct-8-yl)ethyl]phenyl}-1H-imidazol-1-yl]-N-(propan-2-yl)acetamide] | 6.3
CC(C)NC(=O)Cc1nn(-c2ccc(CCN3C4CCC3COC4)cc2)c(=O)n1-c1cccc(Cl)c1 [Example D-03, 2-[4-(3-chlorophenyl)-1-{4-[2-(3-oxa-8-azabicyclo[3.2.1]oct-8-yl)ethyl]phenyl}-5-oxo-4,5-dihydro-1H-1,2,4-triazol-3-yl]-N-(propan-2-yl)acetamide] | 14
CC(C)NC(=O)Cn1cc(-c2ccc(CCN3CCOCC3)cn2)nc1-c1cccc(Cl)c1 [Example A-26, 2-[2-(3-chlorophenyl)-4-{5-[2-(morpholin-4-yl)ethyl]pyridin-2-yl}-1H-imidazol-1-yl]-N-(propan-2-yl)acetamide] | 3.4
COc1cc(-c2nc(-c3ccc(CCN4CCCC4)cc3)cn2CC(=O)NC(C)C)ccc1F [Example A-11, 2-[2-(4-fluoro-3-methoxyphenyl)-4-{4-[2-(pyrrolidin-1-yl)ethyl]phenyl}-1H-imidazol-1-yl]-N-(propan-2-yl)acetamide] | 10
CC(C)NC(=O)Cn1nc(-c2ccc(CCN3C4CCC3COC4)cn2)nc1-c1cccc(Cl)c1 [Example B-04, 2-[5-(3-chlorophenyl)-3-{5-[2-(3-oxa-8-azabicyclo[3.2.1]oct-8-yl)ethyl]pyridin-2-yl}-1H-1,2,4-triazol-1-yl]-N-(propan-2-yl)acetamide] | 7.4
COc1cc(-c2nc(-c3ccc(CCN4C(C)COCC4C)cc3)cn2CC(=O)NC(C)C)ccc1F (stereo not shown) [Example A-25, 2-[4-{4-[2-(3,5-dimethylmorpholin-4-yl)ethyl]phenyl}-2-(4-fluoro-3-methoxyphenyl)-1H-imidazol-1-yl]-N-(propan-2-yl)acetamide] | 14
COc1cc(-c2nc(-c3ccc(CCN4CCC(C#N)CC4)cc3)cn2CC(=O)NC(C)C)ccc1F [Example A-14, 2-[4-{4-[2-(4-cyanopiperidin-1-yl)ethyl]phenyl}-2-(4-fluoro-3-methoxyphenyl)-1H-imidazol-1-yl]-N-(propan-2-yl)acetamide] | 100 to 1000
CC(C)NC(=O)Cn1cc(-c2ccc(CCN3C4CCC3COC4)cc2)nc1-c1cccc(Cl)c1 [Example A-08, 2-[2-(3-chlorophenyl)-4-{4-[2-(3-oxa-8-azabicyclo[3.2.1]oct-8-yl)ethyl]phenyl}-1H-imidazol-1-yl]-N-(propan-2-yl)acetamide] | 0.82
COc1cccc(-c2nc(-c3ccc(CCN4CCCCC4)cc3)cn2CC(=O)NC(C)C)n1 [Example A-28, 2-[2-(6-methoxypyridin-2-yl)-4-{4-[2-(piperidin-1-yl)ethyl]phenyl}-1H-imidazol-1-yl]-N-(propan-2-yl)acetamide] | 10 to 100
COc1cccc(-c2nc(-c3ccc(CCN4CCOCC4)cc3)cn2CC(=O)NC(C)C)c1 [Example A-38, 2-[2-(3-methoxyphenyl)-4-{4-[2-(morpholin-4-yl)ethyl]phenyl}-1H-imidazol-1-yl]-N-(propan-2-yl)acetamide] | 10
CC(C)(C)NC(=O)Cc1nn(-c2ccc(CCN3C4CCC3COC4)cn2)c(=O)n1-c1cccc(Cl)c1 [Example D-16, N-tert-butyl-2-[4-(3-chlorophenyl)-1-{5-[2-(3-oxa-8-azabicyclo[3.2.1]oct-8-yl)ethyl]pyridin-2-yl}-5-oxo-4,5-dihydro-1H-1,2,4-triazol-3-yl]acetamide] | 10 to 100
COc1cc(-c2nc(-c3ccc(CCN4CCC[C@H]4C)cc3)cn2CC(=O)NC(C)C)ccc1F [Example A-12, 2-[2-(4-fluoro-3-methoxyphenyl)-4-(4-{2-[(2R)-2-methylpyrrolidin-1-yl]ethyl}phenyl)-1H-imidazol-1-yl]-N-(propan-2-yl)acetamide] | 17
COc1cc(-c2nc(-c3ccc(CCN4CCCC(C#N)C4)cc3)cn2CC(=O)NC(C)C)ccc1F (stereo not shown) [Example A-13, 2-[4-{4-[2-(3-cyanopiperidin-1-yl)ethyl]phenyl}-2-(4-fluoro-3-methoxyphenyl)-1H-imidazol-1-yl]-N-(propan-2-yl)acetamide] | 10 to 100
COc1cc(-c2nc(-c3ccc(CCN4C5CCC4CC(O)C5)cc3)cn2CC(=O)NC(C)C)ccc1F (stereo not shown) [Example A-15, 2-[2-(4-fluoro-3-methoxyphenyl)-4-{4-[2-(3-hydroxy-8-azabicyclo[3.2.1]oct-8-yl)ethyl]phenyl}-1H-imidazol-1-yl]-N-(propan-2-yl)acetamide] | 2.4
CC(C)NC(=O)Cc1nn(-c2ccc(CCN3C4CCC3COC4)cn2)c(=O)n1-c1cccc(Cl)c1 [Example D-02, 2-[4-(3-chlorophenyl)-1-{5-[2-(3-oxa-8-azabicyclo[3.2.1]oct-8-yl)ethyl]pyridin-2-yl}-5-oxo-4,5-dihydro-1H-1,2,4-triazol-3-yl]-N-(propan-2-yl)acetamide] | 10 to 100
COc1cc(-c2nc(-c3ccc(CCN4CCC(OC)CC4)cc3)cn2CC(=O)NC(C)C)ccc1F [Example A-24, 2-[2-(4-fluoro-3-methoxyphenyl)-4-{4-[2-(4-methoxypiperidin-1-yl)ethyl]phenyl}-1H-imidazol-1-yl]-N-(propan-2-yl)acetamide] | 10 to 100

Results, then the compound that gave them:

IC50 [nM] | SMILES
8.9 | COc1cc(-c2nc(-c3ccc(CCN4CCOCC4)cn3)nn2CC(=O)NC(C)C)ccc1F [Example B-13, 2-[5-(4-fluoro-3-methoxyphenyl)-3-{5-[2-(morpholin-4-yl)ethyl]pyridin-2-yl}-1H-1,2,4-triazol-1-yl]-N-(propan-2-yl)acetamide]
10 to 100 | COc1cccc(-c2nc(-c3ccc(CCN4CCOCC4C)cc3)nn2CC(=O)NC(C)C)c1 (stereo not shown) [Example B-30, 2-[5-(3-methoxyphenyl)-3-{4-[2-(3-methylmorpholin-4-yl)ethyl]phenyl}-1H-1,2,4-triazol-1-yl]-N-(propan-2-yl)acetamide]
10 to 100 | COc1cccc(-c2nc(-c3ccc(CCN4CCC5CCCCC5C4)cc3)nn2CC(=O)NC(C)C)c1 (stereo not shown) [Example B-27, 2-[5-(3-methoxyphenyl)-3-{4-[2-(octahydroisoquinolin-2(1H)-yl)ethyl]phenyl}-1H-1,2,4-triazol-1-yl]-N-(propan-2-yl)acetamide]
10 to 100 | COc1cc(-n2c(CC(=O)NC(C)(C)C)nn(-c3ccc(CCN4CCOCC4)cn3)c2=O)ccc1F [Example D-11, N-tert-butyl-2-[4-(4-fluoro-3-methoxyphenyl)-1-{5-[2-(morpholin-4-yl)ethyl]pyridin-2-yl}-5-oxo-4,5-dihydro-1H-1,2,4-triazol-3-yl]acetamide]
5.3 | COc1cccc(-c2nc(-c3ccc(CCN4CCOCC4)cc3)nn2CC(=O)NC(C)C)c1 [Example B-16, 2-[5-(3-methoxyphenyl)-3-{4-[2-(morpholin-4-yl)ethyl]phenyl}-1H-1,2,4-triazol-1-yl]-N-(propan-2-yl)acetamide]
10 to 100 | COc1cccc(-c2nc(-c3ccc(CCN4CC=CCC4)cc3)nn2CC(=O)NC(C)C)c1 [Example B-22, 2-[3-{4-[2-(3,6-dihydropyridin-1(2H)-yl)ethyl]phenyl}-5-(3-methoxyphenyl)-1H-1,2,4-triazol-1-yl]-N-(propan-2-yl)acetamide]
100 to 1000 | CC(C)NC(=O)Cn1nc(-c2ccc(CN3CCN(C)CC3)cc2)nc1-c1cccc(Cl)c1 [Example B-03, 2-[5-(3-chlorophenyl)-3-{4-[(4-methylpiperazin-1-yl)methyl]phenyl}-1H-1,2,4-triazol-1-yl]-N-(propan-2-yl)acetamide]
6.5 | CC(C)NC(=O)Cc1oc(-c2ccc(CCN3CCCCC3)cc2)nc1-c1cccc(Cl)c1 [Example C-10, 2-[4-(3-chlorophenyl)-2-{4-[2-(piperidin-1-yl)ethyl]phenyl}-1,3-oxazol-5-yl]-N-(propan-2-yl)acetamide]
6.6 | COc1cccc(-c2nc(-c3ccc(CCN4CCOCC4)cn3)nn2CC(=O)NC(C)(C)C)c1 [Example B-14, N-tert-butyl-2-[5-(3-methoxyphenyl)-3-{5-[2-(morpholin-4-yl)ethyl]pyridin-2-yl}-1H-1,2,4-triazol-1-yl]acetamide]
6.9 | COc1cccc(-c2nc(-c3ccc(CCN4CCOCC4)c(F)c3)nn2CC(=O)NC(C)C)c1 [Example B-19, 2-[3-{3-fluoro-4-[2-(morpholin-4-yl)ethyl]phenyl}-5-(3-methoxyphenyl)-1H-1,2,4-triazol-1-yl]-N-(propan-2-yl)acetamide]
10 to 100 | CC(C)NC(=O)Cc1nn(-c2ccc(CCN3CCOCC3)cn2)c(=O)n1-c1ccc(F)c(Cl)c1 [Example D-28, 2-[4-(3-chloro-4-fluorophenyl)-1-{5-[2-(morpholin-4-yl)ethyl]pyridin-2-yl}-5-oxo-4,5-dihydro-1H-1,2,4-triazol-3-yl]-N-(propan-2-yl)acetamide]
6.3 | CC(C)NC(=O)Cn1nc(-c2ccc(CCN3CCOCC3)cn2)nc1-c1ccc(F)c(Cl)c1 [Example B-12, 2-[5-(3-chloro-4-fluorophenyl)-3-{5-[2-(morpholin-4-yl)ethyl]pyridin-2-yl}-1H-1,2,4-triazol-1-yl]-N-(propan-2-yl)acetamide]
